Assay results from patent publication US20180000719A1, “A SKIN LIGHTENING COMPOSITION COMPRISING NIACINAMIDE AND ILOMASTAT” (Conopco, Inc., d/b/a UNILEVER, priority 2014, published 2018).

Experiments:
[1] = tested on: primary human melanocytes; experiment: cells
Experimental: (i) Cell Cultures: • Neonatal foreskin primary human melanocytes were procured from Life Technologies, USA. Cells were grown in Medium 254 supplemented with human melanocyte growth supplement-2 and maintained at 37° C. in a humidified incubator with 5% CO2 atmosphere. The maintenance and sub culturing of cells were carried out as per the manufacturer's instructions. Cells between passages 3-6 were used for experimentation.
(ii) Active Addition: • Cells were seeded at a density of 5×10^4/well in a 24 well plate in Melanocyte Growth Media (MGM) and incubated for 24 hrs at 37° C./5% CO2. Actives were added to cells along with relevant controls.
(iii) Cell Viability Assay • Briefly, spent media was removed and cells washed once with 0.2 ml of 1×PBS-Ca—Mg solution. Fresh 1 μM calcein-AM in PBS buffer was added to each well. Plates were incubated for 30 min. at 37° C. in a CO2 incubator. Calcein fluorescence was then measured (excitation at 490 nm and emission at 520 nm) in TECAN M1000 plate reader.
(iv) Melanin Content Assay: • After Calcein measurements, cultures were rinsed with PBS (1×) and lysed for 1 hour at 60° C. in a shaker incubator using NaOH/DMSO mix. Melanin content was measured in a Tecan plate reader (405 nm filter), corrected for cell numbers and represented as % inhibition.

Tyrosinase enzyme = target: T1, Tyrosinase enzyme (Homo sapiens, UniProt P14679); experiment: In vitro human tyrosinase activity assay (melanocytic lysate); assay type: biochemical
T1 construct: Primary human melanocytic lysate was used as a source of Tyrosinase enzyme; endogenous in cells; host or cells: primary human melanocytes (lysate)
T1 sequence (P14679 19-529): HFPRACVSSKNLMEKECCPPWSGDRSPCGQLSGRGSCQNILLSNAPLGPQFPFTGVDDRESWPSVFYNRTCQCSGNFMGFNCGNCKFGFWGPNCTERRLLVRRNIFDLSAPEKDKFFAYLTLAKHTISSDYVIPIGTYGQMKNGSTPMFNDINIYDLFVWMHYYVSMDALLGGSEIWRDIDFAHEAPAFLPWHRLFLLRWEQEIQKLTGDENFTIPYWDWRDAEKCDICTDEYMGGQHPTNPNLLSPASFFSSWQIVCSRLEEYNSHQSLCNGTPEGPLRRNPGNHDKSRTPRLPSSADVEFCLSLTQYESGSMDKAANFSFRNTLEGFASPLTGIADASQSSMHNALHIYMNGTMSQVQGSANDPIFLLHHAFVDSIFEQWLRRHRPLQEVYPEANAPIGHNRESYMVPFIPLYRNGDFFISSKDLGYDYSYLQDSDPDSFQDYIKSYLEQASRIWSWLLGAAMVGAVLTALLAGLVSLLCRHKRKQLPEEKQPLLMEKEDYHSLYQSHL
Experimental: (v) In Vitro Human Tyrosinase Activity Assay: • Primary human melanocytic lysate was used as a source of Tyrosinase enzyme. Human melanocytic lysate and test actives (at different concentrations) were incubated together for 15 mins, prior to addition of Tyrosine/DOPA substrate mix. Assay plate was then incubated at 37° C. for ˜14-16 hrs. Optical Density was measured at 405 nm and % Inhibition calculated.

[2] = Homo sapiens, Melanocyte, 72 h, read-out: Average % inhibition in cellular melanin

SMILES	inhibition at 1000 µM [1, 2]	inhibition at 10000 µM [1, 2]	inhibition at 10 µM (Tyrosinase enzyme; 0.01 mM Niacinamide)	inhibition at 100 µM (Tyrosinase enzyme; 0.1 mM Niacinamide)	inhibition at 1000 µM (Tyrosinase enzyme; 1 mM Niacinamide)	inhibition at 10000 µM (Tyrosinase enzyme; 10 mM Niacinamide)	inhibition at 50000 µM (Tyrosinase enzyme; 50 mM Niacinamide)	inhibition at 1 µM [1, 2]	inhibition at 10 µM [1, 2]	reduction of melanin content in primary human melanocytes (in words) ([1]; galardin by itself at 1 μM)	reduction of melanin content in primary human melanocytes (in words) ([1]; galardin by itself at 10 μM)
NC(=O)c1cccnc1 [Niacinamide, pyridine-3-carboxamide]	-7%	16%	2%	2%	4%	-8%	-20%				
CNC(=O)[C@H](Cc1c[nH]c2ccccc12)NC(=O)[C@@H](CC(=O)NO)CC(C)C [Galardin, (R)—N4-Hydroxy-N1-[(S)-2-(1H-indol-3-yl)-1-methylcarbamoyl-ethyl]-2-isobutyl-succinamide]								6%	17%	no reduction	modest reduction
